From paper PMC8011926 (Journal of Medicinal Chemistry, 2020)
Marks after values point to notes of the source that are not given here. Starred links: 1 amine or outer side, 2 acyl side, 3 side chain; linkers in the order of their positions; H or OH if unused. Non-standard residues stand in square brackets, D forms with d. Residues, ends and D or L forms follow the SMILES beside them. No end group written: not given here. X3 = N[C@@H](Cc1ccccc1)CN(CC(=O)[*:2])[*:1]

Experiments:
[1] = molecular target: T1, NOP receptor (NOP-RLuc/β-arrestin 2-RGFP) (Homo sapiens, UniProt P41146); test: NOP/β-arrestin 2 interaction, BRET assay in whole cells; format: cell-based; conditions: for NOP/β-arrestin 2 pEC50 (CL95%): BRET, whole HEK293 cells co-expressing NOP-RLuc/β-arrestin 2-RGFP, 100,000 cells/well, room temperature, mean of five independent experiments in duplicate, 95% confidence limits; for NOP/β-arrestin 2 α ± sem (intrinsic activity): Emax of ligand / Emax of N/OFQ(1–13)-NH2, mean ± sem of five experiments in duplicate
T1 construct: expressed in transfected cells; host or cells: HEK293 (whole cells)
Procedure: (§1) For this study, human embryonic kidney (HEK293) cells, permanently co-expressing the different pairs of fusion proteins NOP-RLuc/Gβ1-RGFP and NOP-RLuc/β-arrestin 2-RGFP, and SH-SY5Y cells stably, co-expressing the different pairs of fusion proteins mu-RLuc/Gβ1-RGFP and mu-RLuc/β-arrestin 2-RGFP or delta-RLuc/Gβ1-RGFP and delta-RLuc/β-arrestin 2-RGFP, were used. Cells were prepared and cultured, as described previously.[19],[23] Cells were grown in Dulbecco’s modified Eagle’s medium (DMEM)/HAMS F12 (1:1) supplemented with 10% fetal bovine serum, penicillin G (100 units/mL), streptomycin (100 μg mL^–1), L-glutamine (2 mM), fungizone (1 μg mL^–1), geneticin (G418; 200 μg mL^–1), and hygromycin B (100 μg mL^–1) in a humidified atmosphere of 5% CO2 at 37 °C. For G protein experiments, enriched plasma membrane aliquots from transfected cells were prepared by differential centrifugation; cells were detached with phosphate buffered saline (PBS)/EDTA solution (1 mM, pH 7.4 NaOH), then, after 5 min 500g centrifugation, Dounce-homogenized (30 strokes) in cold homogenization buffer (tris(hydroxymethyl)aminomethane 5 mM, EGTA 1 mM, DTT 1 mM, pH 7.4 HCl) in the presence of sucrose (0.32 M). Three following centrifugations were performed at 10 min 1000g (4 °C), and the supernatants were kept. Two 20 min 24,000g (4 °C) subsequent centrifugations (the second in the absence of sucrose) were performed for separating enriched membranes that, after discarding the supernatant, were kept in ultrapure water at −80 °C.[67] The protein concentration in membrane preparations was determined using the QPRO-BCA kit (Cyanagen Srl, Bologna, IT) and the Ensight (PerkinElmer, Waltham, USA) in the spectrophotometer mode.
(§2) Luminescence in membranes was recorded in 96-well untreated white opaque microplates, while in whole cells, it was recorded in 96-well sterile poly-D-lysine-coated white opaque microplates (PerkinElmer, Waltham, MA, USA) using the luminometer Victor 2030 (PerkinElmer, Waltham, MA, USA). For the determination of receptor/G protein interactions, membranes (3 μg of protein) prepared from cells co-expressing NOP (or mu or delta)/RLuc and Gβ1/RGFP were added to wells in DPBS. For the determination of receptor/β-arrestin 2 interactions, cells co-expressing NOP (or mu or delta)/RLuc and β-arrestin 2/RGFP were plated 24 h before the experiment in poly-D-lysine-treated plates (100,000 cells/well). The cells were prepared for the experiment substituting the medium with PBS with MgCl2 (0.5 mM) and CaCl2 (0.9 mM). Coelenterazine at a final concentration of 5 μM was injected 15 min prior to reading the cell plate. Different concentrations of ligands in 20 μL of PBS–BSA 0.01% were added and incubated 5 min before reading luminescence. […] The BRET ratio was measured 15 min after agonist injection. All experiments were performed at room temperature.
(§3) The pharmacological terminology adopted in this paper is consistent with IUPHAR recommendations.[68] All data are expressed as the mean ± sem of five independent experiments made in duplicate. […] Ligand efficacy was expressed as intrinsic activity (α), calculated as the ratio between the Emax of the ligand and that of the standard agonist. Count per second (CPS) measured for the RGFP and RLuc light emitted using 510(10) and 460(25) filters (PerkinElmer, Waltham, MA), respectively, was used to calculate the BRET ratio. All data are expressed as the stimulated BRET ratio, that is, the ratio between CPS from RGFP and RLuc in the presence of ligands minus the BRET ratio in vehicle-treated wells. […] Concentration–response curves to agonists were fitted to the classical four-parameter logistic nonlinear regression model [drawing 1]
(§4) Curves fitting were performed using PRISM 6.0 (GraphPad Software In., San Diego, USA).

[2] = test system: NOP receptor; test: NOP bias factor, G protein vs β-arrestin 2 (Black–Leff operational model); conditions: for BIAS FACTOR: supplementary CSV (molecular formula strings), repeats Tables 1–7 without confidence limits; for bias factor (CL95%), NOP: ΔΔlog(τ/KA) G protein minus β-arrestin 2, N/OFQ(1–13)-NH2 as standard unbiased ligand, positive = toward G protein, mean of at least five experiments
Description: The concentration–response curves of each compound were fitted to the Black–Leff operational model, described by Nagi and Pineyro[70] [drawing 3] where [A] is the agonist concentration, the maximal response of the system is given by Em, n is a fitting parameter for the slope, the affinity of the agonist is represented by the equilibrium dissociation constant of the agonist–receptor complex (KA), and the efficacy of the agonist is defined by τ. τ and KA are descriptive parameters of intrinsic efficacy and binding affinity and may be directly obtained by fitting the experimental data to the operational equation and can be expressed as “transduction coefficients” log(τ/KA). The relative efficiency of agonists producing activation of any pathways can thus be quantified with a “normalized” transduction coefficient, namely Δlog(τ/KA). Finally, the bias factors were calculated as difference between Δlog(τ/KA) values for a given agonist between the pathways (G protein and β-arrestin 2) [drawing 4]
Bias factors are expressed as the mean of at least five independent experiments, and CL95% are indicated. Biased factor is considered to be statistically different from 0 when 0 is not included in CL95%. α values have been statistically analyzed with one-way analysis of variance (ANOVA) followed by the Dunnett post hoc test for multiple comparisons; P values less than 0.05 were considered to be statistically significant.

[3] = molecular target: T2, NOP receptor (NOP-RLuc/Gβ1-RGFP) (Homo sapiens, UniProt P41146); test: NOP/G protein interaction, BRET assay in membranes; format: biochemical; conditions: for NOP/G protein pEC50 (CL95%): BRET, membranes (3 μg protein) from HEK293 cells co-expressing NOP-RLuc/Gβ1-RGFP, room temperature, mean of five independent experiments in duplicate, 95% confidence limits; for NOP/G protein CR (concentration ratio): ratio between EC50 of the ligand and that of the standard agonist N/OFQ(1–13)-NH2
T2 construct: expressed in transfected cells; host or cells: HEK293 (enriched plasma membranes)
Procedure: as §1, §2, §3, §4

T1 sequence (P41146 whole entry): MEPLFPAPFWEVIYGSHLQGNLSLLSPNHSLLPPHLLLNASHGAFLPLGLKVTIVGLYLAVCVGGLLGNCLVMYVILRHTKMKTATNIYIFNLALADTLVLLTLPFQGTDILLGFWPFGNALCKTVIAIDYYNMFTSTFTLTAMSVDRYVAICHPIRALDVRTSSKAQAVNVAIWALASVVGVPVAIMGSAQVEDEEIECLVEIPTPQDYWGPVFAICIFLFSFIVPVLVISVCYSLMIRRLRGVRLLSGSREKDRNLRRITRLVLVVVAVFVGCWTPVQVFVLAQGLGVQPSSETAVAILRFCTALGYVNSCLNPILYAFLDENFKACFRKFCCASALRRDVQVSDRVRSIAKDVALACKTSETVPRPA
T2 sequence (P41146 whole entry): as above

Compound	BIAS FACTOR [2]	bias factor (CL95%), NOP [2]	further results
C[C@H](NC(=O)CNC(=O)[C@@H](NC(=O)[C@H](Cc1ccccc1)NC(=O)CNC(=O)CNC[C@@H](N)Cc1ccccc1)[C@@H](C)O)C(=O)N[C@@H](CCCNC(=N)N)C(=O)N[C@@H](CCCCN)C(=O)N[C@@H](CO)C(=O)N[C@@H](C)C(=O)N[C@@H](CCCNC(=N)N)C(=O)N[C@@H](CCCCN)C(N)=O [Compound 30, [Phe^1ψ(CH2–NH)Gly^2]N/OFQ(1–13)-NH2] (H-[X3]GFTGARKSARK-NH2)			NOP/β-arrestin 2 pEC50 (CL95%) [1]: Inactive
C[C@H](NC(=O)CNC(=O)[C@@H](NC(=O)[C@H](Cc1ccccc1)NC(=O)CNC(=O)CNC(=O)[C@@H](N)CC1CCCCC1)[C@@H](C)O)C(=O)N[C@@H](CCCNC(=N)N)C(=O)N[C@@H](CCCCN)C(=O)N[C@@H](CO)C(=O)N[C@@H](C)C(=O)N[C@@H](CCCNC(=N)N)C(=O)N[C@@H](CCCCN)C(N)=O [Compound 22, [Cha^1]N/OFQ(1–13)-NH2]	0.20	0.20 (−0.36–0.76)	NOP/β-arrestin 2 α ± sem (intrinsic activity) [1]: 1.03 ± 0.05
[Ala^4]N/OFQ(1–13)-NH2 (FGGATGARKSARK-NH2) [Compound 4]			NOP/G protein pEC50 (CL95%) [3]: Crc incomplete; NOP/G protein CR (concentration ratio) [3]: ∼1000; NOP/β-arrestin 2 pEC50 (CL95%) [1]: inactive
C[C@H](NC(=O)CNC(=O)[C@@H](NC(=O)[C@H](Cc1ccccc1)NC(=O)CNC(=O)CNC(=O)[C@@H](N)Cc1ccccc1)[C@@H](C)O)C(=O)N[C@H](CCCNC(=N)N)C(=O)N[C@@H](CCCCN)C(=O)N[C@@H](CO)C(=O)N[C@@H](C)C(=O)N[C@@H](CCCNC(=N)N)C(=O)N[C@@H](CCCCN)C(N)=O [Compound 16, [DArg^8]N/OFQ(1–13)-NH2]		0.26 (−0.25–0.77)	
[AC5C^11]N/OFQ-NH2 [Compound 38]	0.31	0.31 (−0.19–0.81)	
C[C@H](NC(=O)CNC(=O)[C@@H](NC(=O)[C@H](Cc1ccccc1)NC(=O)CNC(=O)CNC(=O)[C@@H](N)Cc1ccccc1)[C@@H](C)O)C(=O)N[C@@H](CCCNC(=N)N)C(=O)N[C@@H](CCCCN)C(=O)N[C@@H](CO)C(=O)N[C@H](C)C(=O)N[C@@H](CCCNC(=N)N)C(=O)N[C@@H](CCCCN)C(N)=O [Compound 19, [DAla^11]N/OFQ(1–13)-NH2]	0.14	0.14 (−0.31–0.60)	
C[C@H](NC(=O)[C@H](CO)NC(=O)[C@H](CCCCN)NC(=O)[C@H](CCCNC(=N)N)NC(=O)[C@@H](C)NC(=O)CNC(=O)[C@@H](NC(=O)[C@H](Cc1ccccc1)NC(=O)CNC(=O)CNC(=O)[C@@H](N)Cc1ccccc1)[C@@H](C)O)C(=O)N[C@@H](CCCNC(=N)N)C(=O)N[C@@H](CCCCN)C(N)=O [Compound 15, [DAla^7]N/OFQ(1–13)-NH2]	0.21	0.21 (−0.28–0.70)	
[Ala^1]N/OFQ(1–13)-NH2 (AGGFTGARKSARK-NH2) [Compound 1]			NOP/G protein pEC50 (CL95%) [3]: Crc incomplete; NOP/G protein CR (concentration ratio) [3]: ∼700; NOP/β-arrestin 2 pEC50 (CL95%) [1]: inactive
[Ala^8]N/OFQ(1–13)-NH2 (FGGFTGAAKSARK-NH2) [Compound 7]			NOP/G protein pEC50 (CL95%) [3]: Crc incomplete; NOP/G protein CR (concentration ratio) [3]: ∼1000; NOP/β-arrestin 2 pEC50 (CL95%) [1]: inactive
C[C@H](NC(=O)CNC(=O)[C@@H](NC(=O)[C@H](Cc1ccccc1)NC(=O)CNC(=O)CNC(=O)[C@@H](N)Cc1ccccc1)[C@@H](C)O)C(=O)N[C@@H](CCCNC(=N)N)C(=O)N[C@@H](CCCCN)C(=O)N[C@@H](CO)C(=O)N[C@@H](C)C(=O)N[C@H](CCCNC(=N)N)C(=O)N[C@@H](CCCCN)C(N)=O [Compound 20, [DArg^12]N/OFQ(1–13)-NH2]		0.26 (−0.19–0.71)	
FGGWTGARKSARK-NH2 [Compound 24, [Trp^4]N/OFQ(1–13)-NH2]	0.11	0.11 (−0.43–0.65)	NOP/β-arrestin 2 α ± sem (intrinsic activity) [1]: 0.77 ± 0.03 ^a
[AC5C^7]N/OFQ-NH2 [Compound 37]	0.08	0.08 (−0.41–0.58)	
FAGFTGARKSARK-NH2 [Compound 2, [Ala^2]N/OFQ(1–13)-NH2]			NOP/G protein pEC50 (CL95%) [3]: 6.36 (5.89–6.83); NOP/G protein α ± sem (intrinsic activity) ([3]; Emax of ligand / Emax of N/OFQ(1–13)-NH2, mean ± sem of five experiments in duplicate): 0.54 ± 0.07 ^a; NOP/G protein CR (concentration ratio) [3]: 275; NOP/β-arrestin 2 pEC50 (CL95%) [1]: inactive
[Aib^11]N/OFQ-NH2 [Compound 35]	0.29	0.29 (−0.20–0.79)	
C[C@H](NC(=O)CNC(=O)[C@@H](NC(=O)[C@H](Cc1ccccc1)NC(=O)CNC(=O)CNC(=O)[C@@H](N)Cc1ccccc1)[C@@H](C)O)C(=O)N[C@@H](CCCNC(=N)N)C(=O)N[C@@H](CCCCN)C(=O)N[C@@H](CO)C(=O)N[C@@H](C)C(=O)N[C@@H](CCCNC(=N)N)C(=O)N[C@H](CCCCN)C(N)=O [Compound 21, [DLys^13]N/OFQ(1–13)-NH2]	0.03	0.03 (−0.42–0.48)	
C[C@H](NC(=O)CNC(=O)[C@@H](NC(=O)[C@H](Cc1ccccc1)NC(=O)CNC(=O)CNC(=O)[C@@H](N)Cc1ccccc1)[C@@H](C)O)C(=O)N[C@@H](CCCNC(=N)N)C(=O)N[C@@H](CCCCN)C(=O)N[C@H](CO)C(=O)N[C@@H](C)C(=O)N[C@@H](CCCNC(=N)N)C(=O)N[C@@H](CCCCN)C(N)=O [Compound 18, [DSer^10]N/OFQ(1–13)-NH2]	-0.07	–0.07 (−0.52–0.39)	
[AC3C^7]N/OFQ-NH2 [Compound 36]	0.40	0.40 (−0.11–0.90)	
